Key:
NF-κB DNA binding = test: Electrophoretic mobility shift assay (EMSA) of NF-κB in HLEC; assay type: cell-based, human; conditions: inhibitor 20 μM, no b-FGF
Experimental: Adenovirus SV-40 viral DNA-transformed human lens epithelial cells (HLE-B3; HLEC) were purchased from ATCC. Cells were maintained in DMEM supplemented with 20% heat-inactivated FBS, and 50 μg/ml gentamicin. The cells were grown in a humidified incubator at 37° C. and 5% CO2. The HLEC were pretreated with 20 μM of AR inhibitors sorbinil or zopolrestat for overnight in medium containing 0.5% FBS followed by stimulation with various concentrations (0-100 ng/mL) of b-FGF for 24 h and cell viability and expression of α-SMA, β-crystallin and ICAM-1 was quantified. To investigate the effect of b-FGF on NF-κB and MAPK activation, HLEC were starved in medium containing 0.5% FBS with or without AR inhibitors for overnight. The cells were washed with serum-free medium followed by incubation in serum-free medium without or with AR inhibitor containing 50 ng/mL b-FGF for different time intervals.
The HLEC in 150 cm^2 culture flasks were pretreated without or with AR inhibitors for 24 h in serum-free medium, followed by treatment with b-FGF (50 ng/ml) for 1 h at 37° C. The nuclear extracts were prepared as described earlier (Ramana et al., 2003). The Consensus oligonucleotides for NF-κB transcription factors were 5′-end labeled using T4 polynucleotide kinase. EMSA was performed as described earlier (Ramana et al., 2003.). […]

[1] = test system: lens epithelial cells in pig eye capsular bags; test: Lens epithelial cell growth in pig eye capsular bags (trypan blue cell counting); assay type: cell-based; conditions: 7 days culture
Experimental: (§1) Pig eye capsular bags were prepared by phacoemulsification followed by capsulorhexis and incubated in Dulbecco's Modified Eagle's Medium (DMEM) supplemented with 10% FBS and 1% penicillin and streptomycin without or with AR inhibitors, sorbinil (50 μM) and fidarestat (10-30 μM) for 7 days in 5% CO2 condition at 37° C. Medium was replaced with fresh medium without or with AR inhibitors every day. At the end of incubation, capsular bags were examined under the dissection microscope, cut into four pieces and flat mounted on glass slide with cellular side facing up. The pieces of capsular bags were fixed with 4% paraformaldehyde for 3-4 h at 4° C. After fixation, they were washed, transferred to 70% alcohol and stored at 4° C. until used for immunohistochemical analysis.
The pig eye capsular bags were incubated for 7 days as described above. The lens epithelial cells were detached from capsular bags by incubating with 0.25% trypsin-EDTA solution. The trypsinized cells were harvested, washed with PBS and re-suspended in PBS. To determine cell growth, equal volumes of cell suspension and trypan blue were mixed and the cells which excluded trypan blue dye were counted manually by using a hemocytometer.
Phacoemulsification technique for cataract surgery in humans was used to operate enucleated pig eyes. After removing the lens, a capsular tension ring was inserted in the capsular bag. The capsular bag was then cultured in complete growth-medium without or with AR inhibitors. […] After 7 days in culture, the ring was removed and the cells were harvested by trypsinization. The harvested cells were counted using trypan blue exclusion principle.

[2] = test system: α-SMA, β-crystallin and ICAM-1 expression; test: Immunohistochemical analysis of flat-mounted pig eye capsular bags; assay type: cell-based; conditions: 7 days of culture; sorbinil 50 μM, fidarestat 30 μM
Experimental: as §1
The capsular bag specimens flat mounted on slides were washed thrice with PBS and incubated with blocking solution containing 2% BSA, 0.1% Triton-X100, 5% normal goat serum for 1 h at room temperature. Subsequently specimens were washed, incubated with antibodies against α-SMA, β-crystallin, PCNA, and ICAM-1 for 1 h at room temperature. The slides were stained with either LSAB-HRP system (Dako, Carpinteria, Calif.) or incubated with respective FITC labeled secondary antibodies. The samples were examined by using Nikon epifluoroscence microscope (EPI-800 microscope) connected to a computer with Metamorph software.

| basal activity of NF-κB with inhibitor alone (NF-κB DNA binding) | SMILES | inhibition at 50 µM ([1]; Sus scrofa, Epithelial cell, 168 h, sorbinil 50 μM, pig eye capsular bags, vs control) [%] | expression of α-SMA and β-crystallin in capsular bags (immunohistochemistry) [2] | most effective dose at which LEC growth was significantly (p<0.001) inhibited ([1]; doses 10-30 μM tested) [µM] | inhibiting the growth of LEC in pig eye capsular bags ([1]; fidarestat 10-30 μM) |
| --- | --- | --- | --- | --- | --- |
| did not affect | O=C(O)Cc1nn(Cc2nc3cc(C(F)(F)F)ccc3s2)c(=O)c2ccccc12 [zopolrestat] |  |  |  |  |
| did not affect | O=C1NC(=O)[C@@]2(CCOc3ccc(F)cc32)N1 [sorbinil, (S)-6-fluoro-2,3-dihydrospiro[4H-1-benzopyran-4,4′-imidazolidine]-2′,5′-dione] | ~74 | only few cells expressed α-SMA and β-crystallin |  |  |
|  | NC(=O)[C@@H]1C[C@]2(NC(=O)NC2=O)c2cc(F)ccc2O1 [fidarestat, (2S,4S)-2-aminoformyl-6-fluoro-spiro[chroman-4,4′-imidazolidine]-2′,5′-dione] |  |  | 30 | dose-dependent response |

From patent US20090270490A1, “METHODS INVOLVING ALDOSE REDUCTASE INHIBITION” (THE BOARD OF REGENTS OF THE UNIVERSITY OF TEXAS SYSTEM, priority 2008, published 2009)
